# Measurements taken from patent US10167262B2, “Herbicidal substituted 3-arylpyrazoles” (FMC CORPORATION, priority 2014, dated 2019).
# What was measured:
# Assay in all cases: Test E pre-/postemergence greenhouse test, plant response rating 0-100
# Format in all cases: in vivo
# [1] = test system: waterhemp (common waterhemp, Amaranthus rudis); conditions: Postemergence, scale 0 to 100
# Method in brief: (§1)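 Visual control score, 0–100 relative to untreated plants, recorded 14–21 days after spraying. Treatments: preemergence on silt loam seedbeds and postemergence at the 1- to 4-leaf stage, with compound in surfactant-containing solvent.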
# [2] = test system: sandbur (southern sandbur, Cenchrus echinatus); conditions: Postemergence, scale 0 to 100
# Method in brief: as §1
# [3] = test system: Brazilian crabgrass (Digitaria horizontalis); conditions: Postemergence, scale 0 to 100
# Method in brief: as §1
# [4] = test system: arrowleaf sida (Sida rhombifolia); conditions: Postemergence
# Method in brief: as §1
# [5] = test system: hairy beggarticks (Bidens pilosa); conditions: Postemergence, scale 0 to 100
# Method in brief: as §1
# [6] = test system: wild poinsettia (Euphorbia heterophylla); conditions: Postemergence, scale 0 to 100
# Method in brief: as §1
# [7] = test system: fall panicum (Panicum dichotomiflorum); conditions: Postemergence, scale 0 to 100
# Method in brief: as §1
# [8] = test system: soybean (Glycine max); conditions: Postemergence, scale 0 to 100
# Method in brief: as §1
# [9] = test system: barnyardgrass (Echinochloa crus-galli); conditions: Postemergence, scale 0 to 100
# Method in brief: as §1
# [10] = test system: corn (Zea mays); conditions: Postemergence, scale 0 to 100
# Method in brief: as §1
# [11] = test system: palmer pigweed (Amaranthus palmeri); conditions: Postemergence, scale 0 to 100
# Method in brief: as §1
compound,measurement,setting,value
Cn1cc(C(=O)c2cccs2)c(-c2cc(Cl)cc(Cl)c2)n1 [Compound 17],"Plant response rating, Waterhemp",[1]; 31 g ai/ha,50
same,"Plant response rating, Waterhemp",[1]; 62 g ai/ha,80
same,"Plant response rating, Waterhemp",[1]; 125 g ai/ha,85
same,"Plant response rating, Waterhemp",[1]; 250 g ai/ha,90
same,"Plant response rating, Waterhemp",[1]; 500 g ai/ha,95
same,"Plant response rating, Sandbur",[2]; 31 g ai/ha,0
same,"Plant response rating, Sandbur",[2]; 62 g ai/ha,0
same,"Plant response rating, Sandbur",[2]; 125 g ai/ha,0
same,"Plant response rating, Sandbur",[2]; 250 g ai/ha,0
same,"Plant response rating, Sandbur",[2]; 500 g ai/ha,10
same,"Plant response rating, Crabgrass, Brazil",[3]; 31 g ai/ha,0
same,"Plant response rating, Crabgrass, Brazil",[3]; 62 g ai/ha,0
same,"Plant response rating, Crabgrass, Brazil",[3]; 125 g ai/ha,0
same,"Plant response rating, Crabgrass, Brazil",[3]; 250 g ai/ha,0
same,"Plant response rating, Crabgrass, Brazil",[3]; 500 g ai/ha,15
same,"Plant response rating, Arrowleaf Sida","[4]; 31 g ai/ha, scale 0 to 100",60
same,"Plant response rating, Arrowleaf Sida","[4]; 62 g ai/ha, scale 0 to 100",70
same,"Plant response rating, Arrowleaf Sida","[4]; 125 g ai/ha, scale 0 to 100",75
same,"Plant response rating, Arrowleaf Sida","[4]; 250 g ai/ha, scale 0 to 100",80
same,"Plant response rating, Arrowleaf Sida","[4]; 500 g ai/ha, scale 0 to 100 (0 no effect, 100 complete control)",85
same,"Plant response rating, Beggarticks",[5]; 31 g ai/ha,5
same,"Plant response rating, Beggarticks",[5]; 62 g ai/ha,25
same,"Plant response rating, Beggarticks",[5]; 125 g ai/ha,35
same,"Plant response rating, Beggarticks",[5]; 250 g ai/ha,40
same,"Plant response rating, Beggarticks",[5]; 500 g ai/ha,60
same,"Plant response rating, Poinsettia, Wild",[6]; 31 g ai/ha,0
same,"Plant response rating, Poinsettia, Wild",[6]; 62 g ai/ha,0
same,"Plant response rating, Poinsettia, Wild",[6]; 125 g ai/ha,0
same,"Plant response rating, Poinsettia, Wild",[6]; 250 g ai/ha,20
same,"Plant response rating, Poinsettia, Wild",[6]; 500 g ai/ha,30
same,"Plant response rating, Panicum, Fall",[7]; 31 g ai/ha,0
same,"Plant response rating, Panicum, Fall",[7]; 62 g ai/ha,0
same,"Plant response rating, Panicum, Fall",[7]; 125 g ai/ha,0
same,"Plant response rating, Panicum, Fall",[7]; 250 g ai/ha,0
same,"Plant response rating, Panicum, Fall",[7]; 500 g ai/ha,0
same,"Plant response rating, Soybean",[8]; 31 g ai/ha,0
same,"Plant response rating, Soybean",[8]; 62 g ai/ha,0
same,"Plant response rating, Soybean",[8]; 125 g ai/ha,0
same,"Plant response rating, Soybean",[8]; 250 g ai/ha,15
same,"Plant response rating, Soybean",[8]; 500 g ai/ha,20
same,"Plant response rating, Barnyardgrass",[9]; 31 g ai/ha,0
same,"Plant response rating, Barnyardgrass",[9]; 62 g ai/ha,0
same,"Plant response rating, Barnyardgrass",[9]; 125 g ai/ha,0
same,"Plant response rating, Barnyardgrass",[9]; 250 g ai/ha,0
same,"Plant response rating, Barnyardgrass",[9]; 500 g ai/ha,20
same,"Plant response rating, Corn",[10]; 31 g ai/ha,0
same,"Plant response rating, Corn",[10]; 62 g ai/ha,0
same,"Plant response rating, Corn",[10]; 125 g ai/ha,0
same,"Plant response rating, Corn",[10]; 250 g ai/ha,0
same,"Plant response rating, Corn",[10]; 500 g ai/ha,0
same,"Plant response rating, Pigweed, Palmer",[11]; 31 g ai/ha,60
same,"Plant response rating, Pigweed, Palmer",[11]; 62 g ai/ha,70
same,"Plant response rating, Pigweed, Palmer",[11]; 125 g ai/ha,80
same,"Plant response rating, Pigweed, Palmer",[11]; 250 g ai/ha,85
same,"Plant response rating, Pigweed, Palmer",[11]; 500 g ai/ha,95
